Laboratory results published in patent US9682976B2, “Protein kinase C inhibitors and uses thereof” (Rigel Pharmaceuticals, Inc., priority 2012, dated 2017).
Structures can show the parent of a compound that is named as a salt.

Test system: PKC mediated IL-2 production
Assay: IL-2 ELISA, human primary T cell, anti CD3+CD28+
Assay type: cell-based
Settings: human primary T cells stimulated with αCD3 and αCD28, 24 hours
Summary of the method: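 IL-2 was quantified by ELISA in 24 h supernatants from primary human T cells given a 1 h compound pre-treatment at 37° C. These cells had been expanded from blood mononuclear cells on αCD3/αCD28 with IL-2, and the IL-2 was removed by washing. Stimulation used plate-bound αCD3 ([…]) plus αCD28 (5 μg/ml); the counter assay used PMA (0.5 ng/ml) with ionomycin (0.1 uM) instead.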

| SMILES | EC50 (Homo sapiens, T-cell, 24 h) | EC50 |
| --- | --- | --- |
| CC1(C)C[C@H](Nc2nc(Nc3cc(F)cc(S(F)(F)(F)(F)F)c3)ncc2F)C[C@@H]2CCCN21 [Compound 72] | 500 to 1000 nM |  |
| Cn1nnn(-c2cc(Nc3ncc(F)c(N[C@@H]4C[C@@H]5CCCN5C(C)(C)C4)n3)c(F)cc2O[C@@H]2CCOC2)c1=O [Compound 109, 1-(5-((4-(((7R,8aS)-5,5-dimethyloctahydroindolizin-7-yl)amino)-5-fluoropyrimidin-2-yl)amino)-4-fluoro-2-(((R)-tetrahydrofuran-3-yl)oxy)phenyl)-4-methyl-1,4-dihydro-5H-tetrazol-5-one] | 100 to 500 nM |  |
| CC1(C)C[C@H](Nc2nc(Nc3ccc(OCC4CCOCC4)c(C#N)c3)ncc2F)C[C@@H]2CCCN21 [Compound 178, 5-(4-((7R,8aS)-5,5-dimethyloctahydroindolizin-7-ylamino)-5-fluoropyrimidin-2-ylamino)-2-((tetrahydro-2H-pyran-4-yl)methoxy)benzonitrile] | 100 to 500 nM |  |
| COCCOCCOc1ccc(Nc2ncc(F)c(N[C@@H]3C[C@@H]4CCCN4C(C)(C)C3)n2)cc1C#N [Compound 190, 5-((4-(((7R,8aS)-5,5-dimethyloctahydroindolizin-7-yl)amino)-5-fluoropyrimidin-2-yl)amino)-2-(2-(2-methoxyethoxy)ethoxy)benzonitrile] | 100 to 500 nM |  |
| Cn1nnn(-c2cc(Nc3ncc(F)c(N[C@H]4C[C@@H]5CCC(=O)N5C(C)(C)C4)n3)c(F)cc2C2CC2)c1=O [Compound 33, 1-(5-(5-fluoro-4-(hexahydro-5,5-dimethylindolizin-3(5H)-one-7-ylamino)pyrimidin-2-ylamino)-2-cyclopropyl-4-fluorophenyl)-4-methyl-1H-tetrazol-5(4H)-one formate] |  | 1000 to 10000 nM |
| CC1(C)CC(Nc2nc(Nc3ccc(O[C@@H]4CCOC4)c(C#N)c3)ncc2F)CC2CCCN21 (single isomer, unassigned) [Compound 58] |  | 1000 to 10000 nM |
| Cn1nnn(-c2cc(Nc3ncc(F)c(N[C@@H]4C[C@@H]5CCCN5C(C)(C)C4)n3)c(F)cc2O[C@H]2CCOC2)c1=O [Compound 110, 1-(5-((4-(((7R,8aS)-5,5-dimethyloctahydroindolizin-7-yl)amino)-5-fluoropyrimidin-2-yl)amino)-4-fluoro-2-(((S)-tetrahydrofuran-3-yl)oxy)phenyl)-4-methyl-1,4-dihydro-5H-tetrazol-5-one] | 100 to 500 nM |  |
| Cn1nnn(-c2cc(Nc3ncc(F)c(NC4CC5CCCN5C(C)(C)C4)n3)ccc2OC2COC2)c1=O (racemic) [Compound 38, 1-(5-(5-fluoro-4-(octahydro-5,5-dimethylindolizin-7-ylamino)pyrimidin-2-ylamino)-2-(oxetan-3-yloxy)phenyl)-4-methyl-1H-tetrazol-5(4H)-one] | 100 to 500 nM |  |
| Cc1ccc(Nc2ncc(Cl)c(N[C@@H]3C[C@@H]4CCCN4C(C)(C)C3)n2)cc1-n1cnnn1 [Compound 147, 5-chloro-N4-((7R,8aS)-5,5-dimethyloctahydroindolizin-7-yl)-N2-(4-methyl-3-(1H-tetrazol-1-yl)phenyl)pyrimidine-2,4-diamine] | < 100 nM |  |
| CC1(O)COc2ccc(Nc3ncc(F)c(N[C@@H]4C[C@@H]5CCCN5C(C)(C)C4)n3)cc2-n2nnnc21 (stereo partly drawn) [Compound 127] |  | < 100 nM |
| CC1(C)Oc2ccc(Nc3ncc(F)c(N[C@H]4C[C@H]5CCCN5C(C)(C)C4)n3)cc2-n2nnnc21 [Compound 1, N2-(4,4-dimethyl-4H-benzo[b]tetrazolo[1,5-d][1,4]oxazin-8-yl)-5-fluoro-N4-(octahydro-5,5-dimethylindolizin-7-amine)pyrimidine-2,4-diamine] |  | 100 to 500 nM |
| COC(=O)c1ccc(Nc2ncc(F)c(N[C@@H]3C[C@@H]4CCCN4C(C)(C)C3)n2)cc1C(F)(F)F [Compound 320] | 100 to 500 nM |  |
| CC1(C)Oc2ccc(Nc3ncc(F)c(N[C@@H]4C[C@@H]5CCCN5C(C)(C)C4)n3)cc2O1 [Compound 157, N2-(2,2-dimethylbenzo[d][1,3]dioxol-5-yl)-N4-((7R,8aS)-5,5-dimethyloctahydroindolizin-7-yl)-5-fluoropyrimidine-2,4-diamine] | 1000 to 10000 nM |  |
| CC1(C)C[C@H](Nc2nc(Nc3cc(-n4cnnn4)c(C4CC4)cc3F)ncc2F)C[C@@H]2CCCN21 (racemic) [Compound 53, (±)-N^2-(4-cyclopropyl-2-fluoro-5-(1H-tetrazol-1-yl)phenyl)-5-fluoro-n^4-(octahydro-5,5-dimethylindolizin-7-yl)pyrimidine-2,4-diamine] | < 100 nM |  |
| Cn1nc2n(c1=O)-c1cc(Nc3ncc(F)c(N[C@@H]4C[C@@H]5CCCN5C(C)(C)C4)n3)ccc1OC2(C)C [Compound 248, 5-fluoro-N2-(1H-2,4-dihydron-2,4,4-trimethyl-[1,2,4]triazolo[3,4-c][1,4]benzoxazin-1-one-8-yl)-N4-((7R,8aS)-octahydro-5,5-dimethylindolizin-7-yl)pyrimidine-2,4-diamine] | 100 to 500 nM |  |
| Cn1nnn(-c2cc(Nc3ncc(F)c(N[C@@H]4C[C@@H]5CCCN5C(C)(C)C4)n3)c(F)cc2OCC2(C)COC2)c1=O [Compound 159, 1-(5-((4-(((7R,8aS)-5,5-dimethyloctahydroindolizin-7-yl)amino)-5-fluoropyrimidin-2-yl)amino)-4-fluoro-2-((3-methyloxetan-3-yl)methoxy)phenyl)-4-methyl-1,4-dihydro-5H-tetrazol-5-one] | 100 to 500 nM |  |
| Cn1nnn(-c2cc(Nc3ncc(F)c(NC4CCN5C(CCC5(C)C)C4)n3)c(F)cc2C2CC2)c1=O (single isomer, unassigned) [Compound 35, 1-(5-(5-fluoro-4-(octahydro-3,3-dimethylindolizin-7-ylamino)pyrimidin-2-ylamino)-2-cyclopropyl-4-fluorophenyl)-4-methyl-1H-tetrazol-5(4H)-one] |  | 1000 to 10000 nM |
| CC1(C)C[C@H](Nc2nc(Nc3cccc(C#N)c3)ncc2Cl)C[C@@H]2CCCN21 [Compound 153, 3-((5-chloro-4-(((7R,8aS)-5,5-dimethyloctahydroindolizin-7-yl)amino)pyrimidin-2-yl)amino)benzonitrile] | 100 to 500 nM |  |
| Cn1nnn(-c2cc(Nc3ncc(F)c(N[C@H]4C[C@@H]5CCC(=O)N5C(C)(C)C4)n3)c(F)cc2C2CC2)c1=O (racemic) [Compound 32, 1-(5-(5-fluoro-4-(hexahydro-5,5-dimethylindolizin-3(5H)-one-7-ylamino)pyrimidin-2-ylamino)-2-cyclopropyl-4-fluorophenyl)-4-methyl-1H-tetrazol-5(4H)-one] | 1000 to 10000 nM |  |
| Cn1nnn(-c2cc(Nc3ncc(F)c(N[C@@H]4CCN5[C@@H](CCC5(C)C)C4)n3)c(F)cc2C2CC2)c1=O (single isomer, unassigned) [Compound 36] |  | 1000 to 10000 nM |
| Cc1nnnn1-c1cc(Nc2ncc(Cl)c(N[C@@H]3C[C@@H]4CCCN4C(C)(C)C3)n2)ccc1F [Compound 149, 5-chloro-N4-((7R,8aS)-5,5-dimethyloctahydroindolizin-7-yl)-N2-(4-fluoro-3-(5-methyl-1H-tetrazol-1-yl)phenyl)pyrimidine-2,4-diamine] | < 100 nM |  |
| COc1cc(Nc2ncc(F)c(N[C@@H]3C[C@@H]4CCCN4C(C)(C)C3)n2)cc(OC)c1OC [Compound 156, N4-((7R,8aS)-5,5-dimethyloctahydroindolizin-7-yl)-5-fluoro-N2-(3,4,5-trimethoxyphenyl)pyrimidine-2,4-diamine] | 1000 to 10000 nM |  |
| Cn1nnn(-c2cc(Nc3ncc(F)c(N[C@@H]4C[C@@H]5CCCN5C(C)(C)C4)n3)c(F)cc2CCCO)c1=O [Compound 97, 1-(5-(4-((7R,8aS)-octahydro-5,5-dimethylindolizin-7-ylamino)-5-fluoropyrimidin-2-ylamino)-4-fluoro-2-(3-hydroxypropyl)phenyl)-4-methyl-1H-tetrazol-5(4H)-one] | 100 to 500 nM |  |
| [2H]C1(Oc2ccc(Nc3ncc(F)c(N[C@H]4CCN5[C@@H](CCC5(C)C)C4)n3)cc2Cl)CC(O)C1 (stereo partly drawn) [Compound 313, 3-(2-Chloro-4-((4-(((7S,8aS)-3,3-dimethyloctahydroindolizin-7-yl)amino)-5-fluoropyrimidin-2-yl)amino)phenoxy)cyclobutan-3-d-1-ol] | 100 to 500 nM |  |
| Cn1nnn(-c2cc(Nc3ncc(F)c(N[C@H]4C[C@@H]5C[C@@H](F)CN5C(C)(C)C4)n3)c(F)cc2C2CC2)c1=O [Compound 65, 1-(5-(4-((2R,7S,8aR)-2-fluoro-octahydro-5,5-dimethylindolizin-7-ylamino)-5-fluoropyrimidin-2-ylamino)-2-cyclopropyl-4-fluorophenyl)-4-methyl-1H-tetrazol-5(4H)-one] | 1000 to 10000 nM |  |
| CC1(C)C[C@H](Nc2nc(Nc3ccc4c(c3)OCC(=O)N4CC3CC3)ncc2F)C[C@@H]2CCCN21 [Compound 104, 4-(cyclopropylmethyl)-7-((4-(((7R,8aS)-5,5-dimethyloctahydroindolizin-7-yl)amino)-5-fluoropyrimidin-2-yl)amino)-2H-benzo[b][1,4]oxazin-3(4H)-one] | 100 to 500 nM |  |
| C[C@@H](O)COc1cc(F)c(Nc2ncc(F)c(N[C@@H]3C[C@@H]4CCCN4C(C)(C)C3)n2)cc1-n1nnn(C)c1=O [Compound 82] |  | < 100 nM |
| CN1C(=O)C(C)(C)Oc2ccc(Nc3ncc(F)c(N[C@@H]4C[C@@H]5CCCN5C(C)(C)C4)n3)cc21 [Compound 318] | 500 to 1000 nM |  |
| Cn1nc2n(c1=O)-c1cc(Nc3ncc(F)c(N[C@@H]4C[C@@H]5CCCN5C(C)(C)C4)n3)ccc1OCC2(C)O (stereo partly drawn) [Compound 292, 5-fluoro-N2-(1H-2,3,4,5-tetrahydron-2,4-dimethyl-4-hydroxy-[1,2,4]triazolo[4,5-c][1,5]benzoxazepin-1-one-9-yl)-N4-((7R,8aS)-octahydro-5,5-dimethylindolizin-7-yl)pyrimidine-2,4-diamine] | 500 to 1000 nM |  |
| CC(C)N1CCC(Oc2ccc(Nc3ncc(F)c(NC4CC5CCCN5C(C)(C)C4)n3)cc2OC(F)F)CC1 (stereo not drawn) [Compound 6, (R/S, S/R, R/R, S/S)-N^2-(4-(1-isopropylpiperidin-4-yloxy)-3-(difluoromethoxy)phenyl)-5-fluoro-N^4-(octahydro-5,5-dimethylindolizin-7-yl)pyrimidine-2,4-diamine] |  | 100 to 500 nM |
